Experimental data from patent US11566007B2, “Ras inhibitors” (Revolution Medicines, Inc., priority 2019, dated 2023).
Like-named read-outs stand apart in the source and are kept apart here.

Assays:
NCI-H358 (K-Ras G12C) = test: CellTiter-Glo cell viability assay, NCI-H358; assay type: cell-based, human; conditions: Homo sapiens, NCI-H358, 120 h, class symbols
Outline: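 Viability of K-Ras mutant lines is measured by ATP luminescence after five days of compound treatment. Percent of DMSO control is calculated and dose-response data are fitted with a four-parameter logistic equation.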

K-Ras G12C = K-Ras G12C (Homo sapiens (Human), UniProt P01116+P62937, G12C); test: Ras-Raf (BRAF RBD) disruption / FRET / MOA assay, KRAS G12C; assay type: biochemical; conditions: KRAS G12C; Ras-Raf disruption/FRET/MOA assay; read-out: IC50* KRAS G12C FRET data
Chain of K-Ras G12C (P01116-2 other isoform, or with tags, fused parts or gaps G12C): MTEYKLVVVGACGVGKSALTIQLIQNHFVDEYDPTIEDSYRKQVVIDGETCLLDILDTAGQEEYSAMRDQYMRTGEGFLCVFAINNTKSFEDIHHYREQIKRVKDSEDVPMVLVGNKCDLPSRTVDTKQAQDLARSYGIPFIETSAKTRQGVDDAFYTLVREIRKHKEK
Chain of K-Ras G12C (P62937 whole entry): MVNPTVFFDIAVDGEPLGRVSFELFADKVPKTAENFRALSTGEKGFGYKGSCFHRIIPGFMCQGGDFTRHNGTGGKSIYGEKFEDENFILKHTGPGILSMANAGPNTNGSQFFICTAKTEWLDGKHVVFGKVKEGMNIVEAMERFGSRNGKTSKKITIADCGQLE
Outline: (§1)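 Compound-driven ternary complex of nucleotide-loaded Ras with cyclophilin A, disrupting BRAF RBD binding. 10-point 3-fold dilution from 30 μM final, 3 h at 25° C, then anti-His Eu-W1024 (10 nM) and anti-GST allophycocyanin (50 nM) for 1.5 h. IC50 from TR-FRET ratio decrease versus DMSO.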

K-Ras G13C = K-Ras G13C (Homo sapiens (Human), UniProt P01116+P62937, G13C); test: Ras-Raf (BRAF RBD) disruption / FRET / MOA assay, KRAS G13C; assay type: biochemical; conditions: KRAS G13C; Ras-Raf disruption/FRET/MOA assay; read-out: IC50* KRAS G13C FRET data
Chain of K-Ras G13C (P01116-2 other isoform, or with tags, fused parts or gaps G13C): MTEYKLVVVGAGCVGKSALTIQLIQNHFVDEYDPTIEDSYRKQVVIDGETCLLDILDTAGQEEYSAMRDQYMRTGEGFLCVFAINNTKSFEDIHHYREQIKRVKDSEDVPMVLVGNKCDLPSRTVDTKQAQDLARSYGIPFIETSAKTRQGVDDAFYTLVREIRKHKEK
Chain of K-Ras G13C (P62937 whole entry): as the sequence (P62937 whole entry) above
Outline: as §1

KRAS G12S = KRAS G12S (Homo sapiens (Human), UniProt P01116+P62937, G12S); test: Ras-Raf (BRAF RBD) disruption / FRET / MOA assay, KRAS G12S; assay type: biochemical; conditions: Ras-Raf disruption/FRET/MOA assay; class symbols; read-out: KRAS G12S FRET data IC50
Chain of KRAS G12S (P01116-2 other isoform, or with tags, fused parts or gaps G12S): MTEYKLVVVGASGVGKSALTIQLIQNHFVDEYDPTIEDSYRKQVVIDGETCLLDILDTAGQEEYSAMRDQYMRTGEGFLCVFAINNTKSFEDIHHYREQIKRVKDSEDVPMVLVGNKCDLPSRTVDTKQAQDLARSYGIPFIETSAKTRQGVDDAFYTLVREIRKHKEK
Chain of KRAS G12S (P62937 whole entry): as the sequence (P62937 whole entry) above
Outline: as §1

KRAS G12D = KRAS G12D (Homo sapiens (Human), UniProt P01116+P62937, G12D); test: Ras-Raf (BRAF RBD) disruption / FRET / MOA assay, KRAS G12D; assay type: biochemical; conditions: Ras-Raf disruption/FRET/MOA assay; class symbols; read-out: KRAS G12D FRET data IC50
Chain of KRAS G12D (P01116-2 other isoform, or with tags, fused parts or gaps G12D): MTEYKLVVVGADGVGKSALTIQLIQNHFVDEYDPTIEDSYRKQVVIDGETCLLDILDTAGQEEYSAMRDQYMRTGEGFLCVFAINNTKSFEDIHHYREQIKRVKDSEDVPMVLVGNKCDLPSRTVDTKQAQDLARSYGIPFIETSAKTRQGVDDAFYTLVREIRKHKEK
Chain of KRAS G12D (P62937 whole entry): as the sequence (P62937 whole entry) above
Outline: as §1

KRAS WT = KRAS WT (Homo sapiens (Human), UniProt P01116+P62937); test: Ras-Raf (BRAF RBD) disruption / FRET / MOA assay, KRAS WT; assay type: biochemical; conditions: read-out: IC50* KRAS WT FRET data
Chain of KRAS WT (P01116-2 other isoform, or with tags, fused parts or gaps): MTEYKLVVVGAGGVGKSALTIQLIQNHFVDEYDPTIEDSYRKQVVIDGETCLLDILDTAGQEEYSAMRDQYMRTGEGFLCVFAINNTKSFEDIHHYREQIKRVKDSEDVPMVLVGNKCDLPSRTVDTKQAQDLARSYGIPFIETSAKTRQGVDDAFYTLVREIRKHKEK
Chain of KRAS WT (P62937 whole entry): as the sequence (P62937 whole entry) above
Outline: as §1

KRAS G13D = KRAS G13D (Homo sapiens (Human), UniProt P01116+P62937, G13D); test: Ras-Raf (BRAF RBD) disruption / FRET / MOA assay, KRAS G13D; assay type: biochemical; conditions: read-out: IC50* KRAS G13D FRET data
Chain of KRAS G13D (P01116-2 other isoform, or with tags, fused parts or gaps G13D): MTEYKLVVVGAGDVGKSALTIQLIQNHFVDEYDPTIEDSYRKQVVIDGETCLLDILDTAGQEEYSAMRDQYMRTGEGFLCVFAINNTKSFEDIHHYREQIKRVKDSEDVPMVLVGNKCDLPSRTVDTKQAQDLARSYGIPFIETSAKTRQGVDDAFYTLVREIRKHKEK
Chain of KRAS G13D (P62937 whole entry): as the sequence (P62937 whole entry) above
Outline: as §1

KRAS Q61H = KRAS Q61H (Homo sapiens (Human), UniProt P01116+P62937, Q61H); test: Ras-Raf (BRAF RBD) disruption / FRET / MOA assay, KRAS Q61H; assay type: biochemical; conditions: Ras-Raf disruption/FRET/MOA assay; class symbols; read-out: KRAS Q61H FRET data IC50
Chain of KRAS Q61H (P01116-2 other isoform, or with tags, fused parts or gaps Q61H): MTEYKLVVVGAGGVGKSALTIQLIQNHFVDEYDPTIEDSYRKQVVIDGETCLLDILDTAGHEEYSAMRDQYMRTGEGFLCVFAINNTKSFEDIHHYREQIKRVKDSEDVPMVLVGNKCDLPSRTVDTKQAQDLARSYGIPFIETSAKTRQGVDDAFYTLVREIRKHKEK
Chain of KRAS Q61H (P62937 whole entry): as the sequence (P62937 whole entry) above
Outline: (§2)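 Compounds (30 μM top final, 10-point 3-fold dilutions) incubated 3 h at 25° C with nucleotide-loaded Ras, cyclophilin A and BRAF RBD. Detection with 10 nM anti-His Eu-W1024 and 50 nM anti-GST allophycocyanin over another 1.5 h. Lowered TR-FRET ratio relative to DMSO wells gives IC50.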

NRAS G12C = NRAS G12C (Homo sapiens (Human), UniProt P01111+P62937, G12C); test: Ras-Raf (BRAF RBD) disruption / FRET / MOA assay, NRAS G12C; assay type: biochemical; conditions: read-out: IC50* NRAS G12C FRET data
Chain of NRAS G12C (P01111 whole entry G12C): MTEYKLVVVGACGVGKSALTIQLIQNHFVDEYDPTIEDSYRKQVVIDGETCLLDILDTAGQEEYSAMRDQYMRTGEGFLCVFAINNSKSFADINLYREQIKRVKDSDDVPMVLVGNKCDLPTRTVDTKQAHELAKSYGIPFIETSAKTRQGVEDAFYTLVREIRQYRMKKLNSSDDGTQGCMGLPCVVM
Chain of NRAS G12C (P62937 whole entry): as the sequence (P62937 whole entry) above
Outline: as §1

NRAS Q61R = NRAS Q61R (Homo sapiens (Human), UniProt P01111+P62937, Q61R); test: Ras-Raf (BRAF RBD) disruption / FRET / MOA assay, NRAS Q61R; assay type: biochemical; conditions: NRAS Q61R; Ras-Raf disruption/FRET/MOA assay; read-out: IC50* NRAS Q61R FRET data
Chain of NRAS Q61R (P01111 whole entry Q61R): as the sequence (P01111 whole entry G12C) above, with C12G, Q61R counted along it
Chain of NRAS Q61R (P62937 whole entry): as the sequence (P62937 whole entry) above
Outline: as §2

NRAS Q61K = NRAS Q61K (Homo sapiens (Human), UniProt P01111+P62937, Q61K); test: Ras-Raf (BRAF RBD) disruption / FRET / MOA assay, NRAS Q61K; assay type: biochemical; conditions: NRAS Q61K; Ras-Raf disruption/FRET/MOA assay; read-out: IC50* NRAS Q61K FRET data
Chain of NRAS Q61K (P01111 whole entry Q61K): as the sequence (P01111 whole entry G12C) above, with C12G, Q61K counted along it
Chain of NRAS Q61K (P62937 whole entry): as the sequence (P62937 whole entry) above
Outline: as §2

NRAS WT = NRAS WT (Homo sapiens (Human), UniProt P01111+P62937); test: Ras-Raf (BRAF RBD) disruption / FRET / MOA assay, NRAS WT; assay type: biochemical; conditions: read-out: IC50* NRAS WT FRET data
Chain of NRAS WT (P01111 whole entry): as the sequence (P01111 whole entry G12C) above, with C12G counted along it
Chain of NRAS WT (P62937 whole entry): as the sequence (P62937 whole entry) above
Outline: as §2

[1] = NCI-H358, 5-day treatment, read-out: Additional H358 Cell Viability assay data (K-Ras G12C, IC50)

| Structure (SMILES) | IC50 (NCI-H358 (K-Ras G12C); [1]) | IC50 (K-Ras G12C) | IC50 (K-Ras G13C) | IC50 (KRAS G12S) | IC50 (KRAS G12D) | IC50 (KRAS WT) | IC50 (KRAS G13D) | IC50 (KRAS Q61H) | IC50 (NRAS G12C) | IC50 (NRAS Q61R) | IC50 (NRAS Q61K) | IC50 (NRAS WT) | IC50 (NCI-H358 (K-Ras G12C); read-out: Additional H358 Cell Viability assay data (K-Ras G12C, IC50, uM), NCI-H358, 5-day treatment) |
| --- | --- | --- | --- | --- | --- | --- | --- | --- | --- | --- | --- | --- | --- |
| CCn1c(-c2cccnc2[C@H](C)OC)c2c3cc(ccc31)-c1cccc(c1)C[C@H](NC(=O)[C@H](C(C)C)N1CC[C@]3(CCN(C(=O)C#C[C@H]4COCCN4C4COC4)C3)C1=O)C(=O)N1CCC[C@H](N1)C(=O)OCC(C)(C)C2 (atropisomer, axis not shown) [Example A568] | 0.01 to 0.1 µM | 0.01 to 0.1 µM | 1 to 10 µM | 1 to 10 µM | > 10 µM | > 10 µM | > 10 µM | 1 to 10 µM | 0.1 to 1 µM | > 10 µM | > 10 µM | > 10 µM | – |
| CCn1c(-c2cccnc2[C@H](C)OC)c2c3cc(ccc31)-c1cccc(c1)C[C@H](NC(=O)[C@H](C(C)C)N1CC[C@]3(CCN(C(=O)C#C[C@@H]4COCCN4C)C3)C1=O)C(=O)N1CCC[C@H](N1)C(=O)OCC(C)(C)C2 (atropisomer, axis not shown) [Example A569] | – | 0.01 to 0.1 µM | 1 to 10 µM | 1 to 10 µM | > 10 µM | 0.01 to 0.1 µM | > 10 µM | 1 to 10 µM | 0.01 to 0.1 µM | > 10 µM | > 10 µM | > 10 µM | 0.01 to 0.1 µM |
| C=CC(=O)N(C)CCN1CCN(C(=O)N(C)[C@H](C(=O)N[C@H]2Cc3cccc(c3)-c3ccc4c(c3)c(c(-c3cccnc3[C@H](C)OC)n4CC)CC(C)(C)COC(=O)[C@@H]3CCCN(N3)C2=O)C(C)C)C[C@@H]1C (atropisomer, axis not shown) [Example A570] | 0.1 to 1 µM | 0.1 to 1 µM | 0.01 to 0.1 µM | 0.1 to 1 µM | 1 to 10 µM | 0.1 to 1 µM | 1 to 10 µM | 0.1 to 1 µM | 0.1 to 1 µM | 0.1 to 1 µM | 0.1 to 1 µM | 0.1 to 1 µM | – |
| C=CC(=O)N1CCO[C@H]2CN(C(=O)N(C)[C@H](C(=O)N[C@H]3Cc4nc(n(C)n4)-c4ccc5c(c4)c(c(-c4cccnc4[C@H](C)OC)n5CC(F)(F)F)CC(C)(C)COC(=O)[C@@H]4CCCN(N4)C3=O)C(C)C)C[C@H]21 (atropisomer, axis not shown) [Example A575] | 0.01 to 0.1 µM | 0.01 to 0.1 µM | 0.01 to 0.1 µM | 0.1 to 1 µM | 1 to 10 µM | 0.1 to 1 µM | 1 to 10 µM | 0.1 to 1 µM | 0.01 to 0.1 µM | 0.1 to 1 µM | 0.1 to 1 µM | 0.1 to 1 µM | – |
| C=CC(=O)N1CCO[C@]2(CCN(C(=O)N(C)[C@H](C(=O)N[C@H]3Cc4nc(cs4)-c4ccc5c(c4)c(c(-c4cccnc4[C@H](C)OC)n5CC(F)(F)F)CC(C)(C)COC(=O)[C@@H]4CCCN(N4)C3=O)C(C)C)C2)C1 (atropisomer, axis not shown) [Example A593] | 0.1 to 1 µM | 0.1 to 1 µM | 0.1 to 1 µM | 1 to 10 µM | 1 to 10 µM | 1 to 10 µM | 1 to 10 µM | 0.1 to 1 µM | 0.1 to 1 µM | 0.1 to 1 µM | 0.1 to 1 µM | 0.1 to 1 µM | – |
